Assay results: patent US20100216116A1, “VIRAL LATENCY MODEL” (priority 2007, published 2010)
Several values for one entry are separate records, joined by “and”; a condition that tells them apart may be missing. Identical values can stand only once.

How the values were obtained:
Assay type in all cases: cell-based
[1] = tested on: dormant PRV in porcine TG neurons
[2] = tested on: pseudorabies virus (PRV) strain Becker in porcine trigeminal ganglion (TG) neurons
[3] = tested on: IE180 expression in PRV infected porcine TG neurons
[4] = tested on: HSV-1 strain F in porcine TG neurons

C=C[C@@]1(C)CC(=O)[C@]2(O)[C@@]3(C)[C@@H](O)CCC(C)(C)[C@@H]3[C@H](O)[C@H](OC(C)=O)[C@@]2(C)O1 [forskolin, Forskolin]
infected neurons showing expression of late viral proteins [1]: 70% | reactivation of PRV in neurons that contained dormant virus at 120 hpi [1]: 50%

IFN-α
TG neurons with no detectable expression of late viral antigens [2]: ~90% | infected neurons with spread of new virus to surrounding non-neuronal cells [2]: ~4% | neurons with late viral antigen expression limited to the golgi without spread [2]: ~6% | neurons without detectable expression of late viral proteins after withdrawal [2]: 60% | reduction of productive virus infection [2]: 64% and 98% | IE180 expression in discrete nuclear foci after withdrawal [3]: no infected neurons showing IE180 protein expression in discrete nuclear foci could be detected | infected neurons with IE180 in discrete nuclear compartments [3]: detected in all infected neurons | infected neurons with localized nuclear IE180 expression [3]: 45% | infected neurons without any IE180 staining [3]: 55% | expression of HSV-1 gD protein after withdrawal [4]: no detectable expression of HSV-1 gD protein was found in any neuron | productive HSV-1 infection [4]: completely abolished

B1: IFN-γ (protein, UniProt P01579 24-161, looked up)
Interferon gamma: QDPYVKEAENLKKYFNAGHSDVADNGTLFLGILKNWKEESDRKIMQSQIVSFYFKLFKNFKDDQSIQKSVETIKEDMNVKFFNSNKKKRDDFEKLTNYSVTDLNVQRKAIHELIQVMAELSPAAKTGKRKRSQMLFRG
infected neurons without detectable late viral protein expression [2]: Over 90% | reduction of productive virus infection [2]: 45% and 81% | virus spread in the inner chamber [2]: extensive virus spread
